Measured values reported in PubChem BioAssay (NCI).
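Test compounds were applied to cells in 96-well plates for 48 hours at 5 doses. TGI is the concentration that stops growth completely.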

Experiments:
Experiment in all cases: NCI tumour cell line growth inhibition, 48 h
SK-MEL-2 melanoma = tested on: SK-MEL-2 melanoma
U251 CNS = tested on: U251 CNS
NCI-H522 lung = tested on: NCI-H522 lung
HOP-62 NSCLC = tested on: HOP-62 NSCLC
SF-268 CNS = tested on: SF-268 CNS
KM20L2 colon = tested on: KM20L2 colon
HOP-18 NSCLC = tested on: HOP-18 NSCLC
UO-31 renal = tested on: UO-31 renal
RXF 393 renal = tested on: RXF 393 renal
UACC-257 melanoma = tested on: UACC-257 melanoma
TK-10 renal = tested on: TK-10 renal
LOX IMVI melanoma = tested on: LOX IMVI melanoma
OVCAR-8 ovarian = tested on: OVCAR-8 ovarian
HT29 colon = tested on: HT29 colon
OVCAR-5 ovarian = tested on: OVCAR-5 ovarian
KM12 colon = tested on: KM12 colon
MALME-3M melanoma = tested on: MALME-3M melanoma
HCT-116 colon = tested on: HCT-116 colon
XF 498 CNS = tested on: XF 498 CNS
MOLT-4 leukemia = tested on: MOLT-4 leukemia
IGROV1 ovarian = tested on: IGROV1 ovarian
RPMI-8226 leukemia = tested on: RPMI-8226 leukemia
NCI-H23 lung = tested on: NCI-H23 lung
SF-539 CNS = tested on: SF-539 CNS
A498 renal = tested on: A498 renal
HCT-15 colon = tested on: HCT-15 colon
K-562 leukemia = tested on: K-562 leukemia
NCI-H226 lung = tested on: NCI-H226 lung
786-0 renal = tested on: 786-0 renal
OVCAR-3 ovarian = tested on: OVCAR-3 ovarian
SK-MEL-28 melanoma = tested on: SK-MEL-28 melanoma
SNB-75 CNS = tested on: SNB-75 CNS
HOP-92 NSCLC = tested on: HOP-92 NSCLC
NCI-H460 lung = tested on: NCI-H460 lung
EKVX NSCLC = tested on: EKVX NSCLC
HCC-2998 colon = tested on: HCC-2998 colon
SF-295 CNS = tested on: SF-295 CNS
DMS 114 small cell lung = tested on: DMS 114 small cell lung
SN12C renal = tested on: SN12C renal
SNB-19 CNS = tested on: SNB-19 CNS
SR leukemia = tested on: SR leukemia
HL-60(TB) leukemia = tested on: HL-60(TB) leukemia
OVCAR-4 ovarian = tested on: OVCAR-4 ovarian
M19-MEL melanoma = tested on: M19-MEL melanoma
SW-620 colon = tested on: SW-620 colon
A549 NSCLC = tested on: A549 NSCLC
DLD-1 colon = tested on: DLD-1 colon
COLO 205 colon = tested on: COLO 205 colon
ACHN renal = tested on: ACHN renal
LXFL 529 NSCLC = tested on: LXFL 529 NSCLC
SK-OV-3 ovarian = tested on: SK-OV-3 ovarian
MDA-MB-435 = tested on: MDA-MB-435
CCRF-CEM leukemia = tested on: CCRF-CEM leukemia
SK-MEL-5 melanoma = tested on: SK-MEL-5 melanoma
SNB-78 CNS = tested on: SNB-78 CNS
DMS 273 small cell lung = tested on: DMS 273 small cell lung
HS 578T breast = tested on: HS 578T breast
MCF7 breast = tested on: MCF7 breast
MDA-N = tested on: MDA-N
CAKI-1 renal = tested on: CAKI-1 renal
DU-145 prostate = tested on: DU-145 prostate
BT-549 breast = tested on: BT-549 breast
T-47D breast = tested on: T-47D breast
M14 melanoma = tested on: M14 melanoma
UACC-62 melanoma = tested on: UACC-62 melanoma
PC-3 prostate = tested on: PC-3 prostate

Measured: TGI

CCOC(=O)C1S/C(=N\C(=N)N[N+](=O)[O-])N=C1C (stereo not given)
not listed: SK-OV-3 ovarian | MDA-MB-435 | CCRF-CEM leukemia | SK-MEL-5 melanoma | SNB-78 CNS | DMS 273 small cell lung | HS 578T breast | MCF7 breast | MDA-N | CAKI-1 renal | DU-145 prostate | BT-549 breast | T-47D breast | M14 melanoma | UACC-62 melanoma | PC-3 prostate
> 100 µM: all other assays above

N#C/C(=C\c1ccc2ccccc2c1)C(=O)c1ccccc1
> 88.4 µM: M14 melanoma
52 µM: LOX IMVI melanoma
77.6 µM: HS 578T breast
> 55.4 µM: RXF 393 renal
> 94.4 µM: OVCAR-3 ovarian
43.2 µM: MDA-MB-435
> 74.4 µM: NCI-H23 lung
> 80.4 µM: HCT-116 colon
63.7 µM: CCRF-CEM leukemia
71.9 µM: HL-60(TB) leukemia
68.8 µM: MOLT-4 leukemia
32.9 µM: U251 CNS
> 81.4 µM: SW-620 colon
51.4 µM: HOP-62 NSCLC
97.8 µM: RPMI-8226 leukemia
> 87.2 µM: SN12C renal
> 46.4 µM: OVCAR-8 ovarian
> 85.5 µM: 786-0 renal
> 78.5 µM: SK-MEL-5 melanoma | UACC-62 melanoma
99.2 µM: K-562 leukemia
not listed: HOP-92 NSCLC
> 100 µM: all other assays above
